US20100249071A1, “Modulators of S1P and Methods of Making And Using” (Exelixis, Inc., priority 2009, published 2010)
pEC50: −log10 of the molar value. Read-outs that look alike come from different tables or passages of the source.

Experiments:
[1] = target: T1, hS1P1R (hEdg1) membrane protein (Homo sapiens, UniProt P21453); assay: hS1P1R GTPγS binding assay (Assay 3a); assay type: biochemical
T1 construct: purchased Lonza
Method: Assay 3a: The hS1P1R GTPγS binding assay was carried out at room temperature in 96 well non-binding surface assay plates. The reaction in each well contained 4 μg hS1P1R (hEdg1) membrane protein (Lonza), 30 μM GDP, 0.1 nM [^35S]GTPγS, 0.25% fatty acid free BSA, and serially diluted hS1P1R agonist compound in 200 μL assay buffer (25 mM Tris-HCl PH 7.9, 100 mM NaCl, 3 mM MgCl2, and 0.2 mM EGTA). After one hour of incubation, 0.9 mg of WGA (Wheat Germ Agglutinin) SPA beads in 50 μL of assay buffer was added to each well. The SPA beads were spun down after an additional one hour incubation. The radioactivity of the bound GTPγS was counted by reading the assay plate using a MicroBeta.

S1P1 = target: T2, S1P1 (Homo sapiens, UniProt P21453); assay: Tango β-arrestin recruitment assay in U2OS cells (Assay 2b); assay type: cell-based
T2 construct: host or cells: U2OS
T2 sequence (P32121 whole entry): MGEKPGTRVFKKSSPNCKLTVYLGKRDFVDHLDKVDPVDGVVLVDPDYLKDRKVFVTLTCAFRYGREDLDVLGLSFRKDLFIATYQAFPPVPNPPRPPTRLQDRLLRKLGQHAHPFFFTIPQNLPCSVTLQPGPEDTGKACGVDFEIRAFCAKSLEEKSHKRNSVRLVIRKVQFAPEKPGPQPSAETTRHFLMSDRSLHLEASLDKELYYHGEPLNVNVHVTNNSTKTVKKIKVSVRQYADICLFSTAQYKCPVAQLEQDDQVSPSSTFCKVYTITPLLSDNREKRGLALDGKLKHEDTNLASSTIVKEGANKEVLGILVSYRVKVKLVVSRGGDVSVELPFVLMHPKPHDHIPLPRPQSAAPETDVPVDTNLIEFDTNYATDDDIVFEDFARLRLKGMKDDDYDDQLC
T2 sequence (P21453 whole entry): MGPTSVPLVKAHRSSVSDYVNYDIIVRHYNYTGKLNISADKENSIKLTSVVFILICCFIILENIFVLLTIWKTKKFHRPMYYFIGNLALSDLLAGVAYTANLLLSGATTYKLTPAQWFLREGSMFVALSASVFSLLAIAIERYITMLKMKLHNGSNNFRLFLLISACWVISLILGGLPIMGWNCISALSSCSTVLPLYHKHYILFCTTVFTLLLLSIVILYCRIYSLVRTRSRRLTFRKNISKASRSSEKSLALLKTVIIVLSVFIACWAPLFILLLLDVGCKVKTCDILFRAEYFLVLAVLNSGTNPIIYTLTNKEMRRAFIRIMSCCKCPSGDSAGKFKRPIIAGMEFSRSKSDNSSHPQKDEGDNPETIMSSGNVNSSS
Source text: (§1) For the Tango™ β-arrestin recruitment assay, the cytoplasmic C-terminus of S1P1 was tethered to the tTA transcriptional activator with a linker that contains a cleavage site for the N1a protease from tobacco etch virus (TEV protease). The C-terminus of the human β-arrestin2 protein was fused to TEV protease. Binding of an agonist recruits the βl -arrestin-TEV fusion protein to the receptor resulting in cleavage of the linker and released of tTA to enter the nucleus and subsequently activated a tTA-dependent luciferase reporter gene.
Assay 2b: Alternatively, U2OS cells expressing the reporter gene and S1P1 (Invitrogen) were added to the wells of a 384-well white opaque bottom assay plate (PerkinElmer) at […]. The cells were serum starved for 48 h in Freestyle medium (Invitrogen). Test compounds were tested at maximum concentrations of 1 μM for the agonist assay. Compounds were diluted in DMSO (10 concentration points, 3-fold each) and added to the assay plate at a 1% final DMSO concentration. The efficacy control was 1 μM S1P (Avanti). For each compound, there were duplicate assay plates and each assay plate had duplicate wells per concentration point. The plate was incubated overnight at 37° C. The GeneBLAzer β-lactamase assay reagent (Invitrogen) was added and the plates were incubated for an additional 2 h at room temperature. Fluorescence was measured using an EnVision plate reader (PerkinElmer, Waltham, Mass.) at an excitation wavelength of 409 nm and emission wavelengths of 460 nm and 530 nm. The emission intensity at each wavelength was background subtracted against wells containing medium only and the F460 nm/F530 nm ratio determined for each concentration of the test compounds. Percent activity was calculated as [(test compound ratio−DMSO ratio)/(positive control ratio−DMSO ratio)*100], where the positive control and DMSO ratios are from cells incubated with the efficacy control 1 μM S1P and 1% DMSO, respectively. The percent activities were plotted against compound concentration to determine EC50 using XLFit (IDBS).

[2] = target: T3, hS1PR5 (hEdg8) membrane protein (Homo sapiens, UniProt Q9H228); assay: hS1P5R GTPγS binding assay (Assay 4); assay type: biochemical
T3 construct: expressed in transfected cells; host or cells: CHO
T3 sequence (Q9H228 whole entry): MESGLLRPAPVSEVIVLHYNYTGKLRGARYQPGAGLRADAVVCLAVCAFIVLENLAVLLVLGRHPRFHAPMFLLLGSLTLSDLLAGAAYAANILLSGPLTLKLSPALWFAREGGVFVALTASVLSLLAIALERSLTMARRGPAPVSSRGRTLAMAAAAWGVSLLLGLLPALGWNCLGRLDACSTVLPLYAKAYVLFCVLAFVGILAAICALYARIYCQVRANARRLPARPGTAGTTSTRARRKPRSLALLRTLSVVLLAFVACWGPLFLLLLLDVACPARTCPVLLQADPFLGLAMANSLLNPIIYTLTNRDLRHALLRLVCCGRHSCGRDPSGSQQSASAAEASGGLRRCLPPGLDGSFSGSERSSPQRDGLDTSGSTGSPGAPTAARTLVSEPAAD
Method: The hS1PR5 GTPγS binding assay was carried out at room temperature in 96-well non-binding surface assay plates. The reaction in each well contained 5 μg hS1PR5 (hEdg8) membrane protein from CHO cells expressing hS1PR5, 30 μM GDP, 0.1 nM [^35S]GTPγS, 0.25% fatty acid free BSA, and serially-diluted Compound of the Invention in 200 μL assay buffer (25 mM Tris-HCl PH 7.9, 100 mM NaCl, 3 mM MgCl2, and 0.2 mM EGTA). After one hour of incubation, 0.9 mg of WGA (Wheat Germ Agglutinin) SPA beads in 50 μL of assay buffer was added to each well. The SPA beads were spun down after an additional one hour incubation. The radioactivity of the bound GTPγS was counted by reading the assay plate using a MicroBeta.

S1P3 = target: T4, S1P3 (Homo sapiens, UniProt Q99500); assay: S1P3 Tango β-arrestin recruitment assay in HEK293 cells (Assay 5); assay type: cell-based; conditions: read-out: Assay 5 EC50
T4 construct: host or cells: HEK293 (transient transfection)
T4 sequence (P32121 whole entry): as the sequence (P32121 whole entry) above
T4 sequence (Q99500 whole entry): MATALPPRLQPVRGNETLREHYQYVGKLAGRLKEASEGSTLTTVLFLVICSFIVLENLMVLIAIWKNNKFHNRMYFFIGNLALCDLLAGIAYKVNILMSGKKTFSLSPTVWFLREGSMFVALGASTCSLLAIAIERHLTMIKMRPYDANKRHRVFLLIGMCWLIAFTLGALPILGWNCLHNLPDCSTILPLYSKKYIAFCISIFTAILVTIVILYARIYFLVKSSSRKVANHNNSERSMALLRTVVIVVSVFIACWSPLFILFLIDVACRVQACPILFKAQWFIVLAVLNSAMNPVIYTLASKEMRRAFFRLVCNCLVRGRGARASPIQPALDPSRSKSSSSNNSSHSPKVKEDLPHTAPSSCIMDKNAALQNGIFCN
Source text: as §1
Assay 2a: Frozen HEK293 cells transiently transfected with receptor cDNAs for S1P1 (Invitrogen) are thawed and suspended in 10 mL of Pro293a-CDM culture medium (Invitrogen) supplemented with 4 mM L-Glutamine (Invitrogen), 1× Pen/Strep (100 units/mL penicillin and 100 μg/mL streptomycin, Invitrogen) and 0.1% fatty acid free BSA (Sigma-Aldrich). Cells are added to the wells of a 384-well white opaque bottom assay plate (PerkinElmer) at 3,000-6,000 cells per well and the plate is incubated for approximately 4 h in a 37° C. incubator. Test compounds are tested at maximum concentrations of 10 μM for the agonist assays. Compounds are diluted in DMSO (10 concentration points, 3-fold each) and added to the assay plate at a 1% final DMSO concentration. For each compound, there are duplicate assay plates and each assay plate has duplicate wells per concentration point. The plate is incubated at 37° C. for 30 min. The efficacy control is 5 μM S1P (Avanti). Following agonist addition, the assay plates are incubated in a 37° C. incubator for 16-18 h. Luciferase assay reagent is added and luminescence measured in an EnVision plate reader (PerkinElmer). To determine agonist activity, percent activity is calculated as [(test compound−background)/(positive control−background)*100], where background is the luminescence of the DMSO alone control and the positive control is the luminescence from cells incubated with the efficacy control 5 μM S1P. The percent activities are plotted against compound concentration to determine EC50 using XLFit (IDBS).
This assay was conducted using the procedures described in Assay 2a, replacing S1P1 with S1P3.

T1 sequence (P21453 whole entry): as the sequence (P21453 whole entry) above

pEC50 [1]	pEC50 (S1P1; read-out: Assay 2b EC50)	pEC50 [2]	pEC50 (S1P3)	pEC50 (S1P1; * = rEC50 measured rather than EC50, read-out: Assay 2b rEC50 (relative EC50, cells marked *))	SMILES
5.55 to 6.60	6.60 to 7.30	5.55 to 6.60	< 5.00	–	CC(C)Cc1ccc(-c2nnc(-c3cc(F)c(OC[C@H](N)CO)cc3Cl)s2)cc1 [Entry 3, (2R)-2-amino-3-[(5-chloro-2-fluoro-4-{5-[4-(2-methylpropyl)phenyl]-1,3,4-thiadiazol-2-yl}phenyl)oxy]propan-1-ol]
7.30 to 8.00	≥ 8.00	5.55 to 6.60	≥ 6.60	–	CC(C)N(C)c1cc(-c2nnc(-c3cc(F)c(OCC(N)CO)cc3Cl)s2)cc(Cl)n1 (centres unmarked) [Entry 5, 2-amino-3-{[5-chloro-4-(5-{2-chloro-6-[methyl(1-methylethyl)amino]pyridin-4-yl}-1,3,4-thiadiazol-2-yl)-2-fluorophenyl]oxy}propan-1-ol]
7.30 to 8.00	≥ 8.00	5.55 to 6.60	≥ 6.60	–	CC(C)Oc1ncc(-c2nnc(-c3cc(F)c(OCC(N)CO)cc3Cl)s2)cc1Cl (centres unmarked) [Entry 6, 2-amino-3-{[5-chloro-4-(5-{5-chloro-6-[(1-methylethyl)oxy]pyridin-3-yl}-1,3,4-thiadiazol-2-yl)-2-fluorophenyl]oxy}propan-1-ol]
≥ 8.00	≥ 8.00	7.30 to 8.00	≥ 6.60	–	CC(C)Oc1ccc(-c2nnc(-c3cc(F)c(OC[C@@H](N)CO)cc3Cl)s2)cc1Cl [Entry 10, (2S)-2-amino-3-{[5-chloro-4-(5-{3-chloro-4-[(1-methylethyl)oxy]phenyl}-1,3,4-thiadiazol-2-yl)-2-fluorophenyl]oxy}propan-1-ol]
≥ 8.00	≥ 8.00	7.30 to 8.00	≥ 6.60	–	CC(C)Oc1ccc(-c2nnc(-c3cc(F)c(OC[C@@H](N)CO)cc3Cl)s2)cc1Br [Entry 11, (2S)-2-amino-3-{[4-(5-{3-bromo-4-[(1-methylethyl)oxy]phenyl}-1,3,4-thiadiazol-2-yl)-5-chloro-2-fluorophenyl]oxy}propan-1-ol]
5.55 to 6.60	≥ 8.00	–	≥ 6.60	–	CC(C)N(C)c1ccc(-c2nnc(-c3cc(F)c(OCC(N)CO)cc3Cl)s2)cn1 (centres unmarked) [Entry 36, 2-amino-3-{[5-chloro-2-fluoro-4-(5-{6-[methyl(1-methylethyl)amino]pyridin-3-yl}-1,3,4-thiadiazol-2-yl)phenyl]oxy}propan-1-ol]
5.55 to 6.60	5.55 to 6.60	–	< 5.00	–	N[C@H](CO)COc1cc(Cl)c(-c2nnc(-c3cc(Cl)cc(Cl)c3)s2)cc1F [Entry 92, (2R)-2-amino-3-({5-chloro-4-[5-(3,5-dichlorophenyl)-1,3,4-thiadiazol-2-yl]-2-fluorophenyl}oxy)propan-1-ol]
–	–	≥ 8.00	< 6.60	≥ 8.00	Cc1cc(-c2nnc(-c3cc(F)c(OC[C@H](N)[C@H](C)OP(=O)(O)O)cc3Cl)s2)ccc1OC(C)C [Entry 104, (1S,2S)-2-amino-3-{[5-chloro-2-fluoro-4-(5-{3-methyl-4-[(1-methylethyl)oxy]phenyl}-1,3,4-thiadiazol-2-yl)phenyl]oxy}-1-methylpropyl dihydrogen phosphate]
–	6.60 to 7.30	6.60 to 7.30	< 6.60	–	Cc1nc(-c2nnc(-c3cc(F)c(OC[C@H](N)[C@H](C)O)cc3Cl)s2)ccc1NC(C)C [Entry 105, (2S,3S)-3-amino-4-(5-chloro-2-fluoro-4-{5-[6-methyl-5-(propan-2-ylamino)pyridin-2-yl]-1,3,4-thiadiazol-2-yl}phenoxy)butan-2-ol]
–	6.60 to 7.30	6.60 to 7.30	< 6.60	–	Cc1cc(NC(C)C)cc(-c2nnc(-c3cc(F)c(OC[C@H](N)[C@H](C)O)cc3Cl)s2)n1 [Entry 106, (2S,3S)-3-amino-4-(5-chloro-2-fluoro-4-{5-[6-methyl-4-(propan-2-ylamino)pyridin-2-yl]-1,3,4-thiadiazol-2-yl}phenoxy)butan-2-ol]
